Laboratory results as given in patent publication US11173151B2, “Substituted triazole derivatives and uses thereof” (BAYER AKTIENGESELLSCHAFT, priority 2017, dated 2021).
pIC50: −log10 of the molar value. Like-named read-outs stand apart in the source and are kept apart here.

Experiments:
[1] = molecular target: T1, human V1a receptor (Homo sapiens, UniProt P37288); test: Cellular in vitro assay for determining vasopressin receptor activity, V1a receptor cell line (CHO, aequorin luminescence); type: cell-based; conditions: for pIC50: CHO cell line transfected with human V1a receptor, [Arg]-vasopressin at EC50 concentration, read-out: IC50 hV1a; for ratio IC50 hV2/hV1a: selectivity ratio IC50 hV2 / IC50 hV1a
T1 construct: expressed in transfected cells; host or cells: CHO K1 (ATCC), also stably transfected with a modified aequorin
How it was run: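 Antagonism is measured in stable CHO K1 transfectants coexpressing the Gαq-coupled receptor and a calcium-sensitive aequorin photoprotein. Agonist challenge uses [Arg]-vasopressin at EC50 after a 10-minute compound exposure; IC50 values come from the luminescence signal.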

[2] = molecular target: T2, human V2 receptor (Homo sapiens, UniProt P30518); test: Cellular in vitro assay for determining vasopressin receptor activity, V2 receptor cell line (CHO, CRE-luciferase); type: cell-based; conditions: CHO cell line transfected with human V2 receptor, [Arg8]-vasopressin at EC50 concentration, read-out: IC50 hV2
T2 construct: expressed in transfected cells; host or cells: CHO K1 (ATCC) expressing firefly luciferase under a CRE-responsive promoter
T2 sequence (P30518 whole entry): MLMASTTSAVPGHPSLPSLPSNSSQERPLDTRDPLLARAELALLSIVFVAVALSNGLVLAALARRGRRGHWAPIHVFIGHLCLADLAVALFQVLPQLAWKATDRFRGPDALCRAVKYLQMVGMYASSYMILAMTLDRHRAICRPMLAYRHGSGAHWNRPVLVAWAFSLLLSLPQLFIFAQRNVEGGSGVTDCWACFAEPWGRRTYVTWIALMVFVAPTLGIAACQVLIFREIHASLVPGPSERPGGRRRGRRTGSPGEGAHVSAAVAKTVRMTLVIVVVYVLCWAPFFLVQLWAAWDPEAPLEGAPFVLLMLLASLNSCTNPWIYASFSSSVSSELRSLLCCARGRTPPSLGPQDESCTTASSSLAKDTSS

T1 sequence (P37288 whole entry): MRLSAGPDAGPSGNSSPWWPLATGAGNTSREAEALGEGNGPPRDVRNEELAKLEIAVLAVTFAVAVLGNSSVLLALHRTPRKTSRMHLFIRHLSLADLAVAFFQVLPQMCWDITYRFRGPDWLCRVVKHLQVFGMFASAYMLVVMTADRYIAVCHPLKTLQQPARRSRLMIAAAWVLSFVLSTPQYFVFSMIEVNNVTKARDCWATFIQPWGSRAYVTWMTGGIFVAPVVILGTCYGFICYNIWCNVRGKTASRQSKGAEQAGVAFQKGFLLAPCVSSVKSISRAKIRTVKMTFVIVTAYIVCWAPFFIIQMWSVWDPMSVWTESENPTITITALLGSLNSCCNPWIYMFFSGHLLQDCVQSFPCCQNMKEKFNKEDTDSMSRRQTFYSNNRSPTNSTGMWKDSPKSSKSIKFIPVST

pIC50 [1]	ratio IC50 hV2/hV1a [1]	pIC50 [2]	pIC50 ([2]; 3 hours)	SMILES
5.00	0.9	5.05	–	O=C1CN(C(=O)c2nc(Cn3nc(-c4ccc(Cl)cc4)n(C[C@H](O)C(F)(F)F)c3=O)nn2-c2cnccc2C(=O)NCC(F)(F)F)CCN1 [Example 510, 3-{3-({3-(4-Chlorophenyl)-5-oxo-4-[(2S)-3,3,3-trifluoro-2-hydroxypropyl]-4,5-dihydro-1H-1,2,4-triazol-1-yl}methyl)-5-[(3-oxopiperazin-1-yl)carbonyl]-1H-1,2,4-triazol-1-yl}-N-(2,2,2-trifluoroethyl)pyridine-4-carboxamide]
7.03	36.8	–	5.47	CN(CC1CC1)C(=O)c1cccc(Cl)c1-n1cnc(Cn2nc(-c3ccc(Cl)cc3)n(C[C@H](O)C(F)(F)F)c2=O)n1 [Example 387, 3-Chloro-2-[3-({3-(4-chlorophenyl)-5-oxo-4-[(2S)-3,3,3-trifluoro-2-hydroxypropyl]-4,5-dihydro-1H-1,2,4-triazol-1-yl}methyl)-1H-1,2,4-triazol-1-yl]-N-(cyclopropylmethyl)-N-methylbenzamide]
5.70	1.1	5.65	–	CC1(NC(=O)c2ccncc2-n2nc(Cn3nc(-c4ccc(Cl)cc4)n(C[C@H](O)C(F)(F)F)c3=O)nc2C(=O)N2CCNC(=O)C2)CC1 [Example 515, 3-{3-({3-(4-Chlorophenyl)-5-oxo-4-[(2S)-3,3,3-trifluoro-2-hydroxypropyl]-4,5-dihydro-1H-1,2,4-triazol-1-yl}methyl)-5-[(3-oxopiperazin-1-yl)carbonyl]-1H-1,2,4-triazol-1-yl}-N-(1-methylcyclopropyl)pyridine-4-carboxamide]
5.70	2.5	–	5.31	NC(=O)[C@@H]1CC(F)(F)CN1c1ccncc1-n1cnc(Cn2nc(-c3ccc(Cl)cc3)n(C[C@H](O)C(F)(F)F)c2=O)n1 [Example 25, 1-{3-[3-({3-(4-Chlorophenyl)-5-oxo-4-[(2S)-3,3,3-trifluoro-2-hydroxypropyl]-4,5-dihydro-1H-1,2,4-triazol-1-yl}methyl)-1H-1,2,4-triazol-1-yl]pyridin-4-yl}-4,4-difluoro-L-prolinamide]
7.74	152.8	–	5.56	CCN1CCN(C(=O)c2ccccc2-n2cnc(Cn3nc(-c4ccc(Cl)cc4)n(C[C@H](O)C(F)(F)F)c3=O)n2)CC1 [Example 358, 5-(4-Chlorophenyl)-2-[(1-{2-[(4-ethylpiperazin-1-yl)carbonyl]phenyl}-1H-1,2,4-triazol-3-yl)methyl]-4-[(2S)-3,3,3-trifluoro-2-hydroxypropyl]-2,4-dihydro-3H-1,2,4-triazol-3-one]
6.50	12.1	–	5.42	Cc1n[nH]c(C)c1C(=O)Nc1ncccc1-n1cnc(Cn2nc(-c3ccc(Cl)cc3)n(C[C@H](O)C(F)(F)F)c2=O)n1 [Example 124]
6.36	22.0	–	5.02	O=C(c1cccc(Cl)c1-n1cnc(Cn2nc(-c3ccc(Cl)cc3)n(C[C@H](O)C(F)(F)F)c2=O)n1)N1CCS(=O)(=O)CC1 [Example 385, 2-[(1-{2-Chloro-6-[(1,1-dioxidothiomorpholin-4-yl)carbonyl]phenyl}-1H-1,2,4-triazol-3-yl)methyl]-5-(4-chlorophenyl)-4-[(2S)-3,3,3-trifluoro-2-hydroxypropyl]-2,4-dihydro-3H-1,2,4-triazol-3-one]
8.69	658.5	–	5.87	O=C(Nc1ncccc1-n1cnc(Cn2nc(-c3ccc(Cl)cc3)n(C[C@H](O)C(F)(F)F)c2=O)n1)C1(C(F)(F)F)CC1 [Example 81, N-{3-[3-({3-(4-Chlorophenyl)-5-oxo-4-[(2S)-3,3,3-trifluoro-2-hydroxypropyl]-4,5-dihydro-1H-1,2,4-triazol-1-yl}methyl)-1H-1,2,4-triazol-1-yl]pyridin-2-yl}-1-(trifluoromethyl)cyclopropanecarboxamide]
7.96	35.9	–	6.40	CC(=O)Nc1ccncc1-n1cnc(Cn2nc(-c3ccc(Cl)cc3)n(C[C@H](O)C(F)(F)F)c2=O)n1 [Example 28, N-{3-[3-({3-(4-Chlorophenyl)-5-oxo-4-[(2S)-3,3,3-trifluoro-2-hydroxypropyl]-4,5-dihydro-1H-1,2,4-triazol-1-yl}methyl)-1H-1,2,4-triazol-1-yl]pyridin-4-yl}acetamide]
7.00	60.5	5.22	–	O=C(NC1CC1)c1ncccc1-n1cnc(Cn2nc(-c3ccc(Cl)cc3)n(C[C@@H](O)C(F)(F)F)c2=O)n1 [Example 458, 3-[3-({3-(4-Chlorophenyl)-5-oxo-4-[(2R)-3,3,3-trifluoro-2-hydroxypropyl]-4,5-dihydro-1H-1,2,4-triazol-1-yl}methyl)-1H-1,2,4-triazol-1-yl]-N-cyclopropylpyridine-2-carboxamide]
7.18	16.0	–	5.98	CC(C)(C)C(=O)Nc1ncccc1-n1cnc(Cn2nc(-c3ccc(Cl)cc3)n(C[C@H](O)C(F)(F)F)c2=O)n1 [Example 117]
9.33	329.8	–	6.81	O=C(NC1CC1F)c1ccccc1-n1cnc(Cn2nc(-c3ccc(Cl)cc3)n(C[C@H](O)C(F)(F)F)c2=O)n1 (mixture of isomers) [Example 364, 2-[3-({3-(4-Chlorophenyl)-5-oxo-4-[(2S)-3,3,3-trifluoro-2-hydroxypropyl]-4,5-dihydro-1H-1,2,4-triazol-1-yl}methyl)-1H-1,2,4-triazol-1-yl]-N-(2-fluorocyclopropyl)benzamide]
7.04	23.4	–	5.67	O=C(Nc1ncccc1-n1cnc(Cn2nc(-c3ccc(Cl)cc3)n(C[C@H](O)C(F)(F)F)c2=O)n1)c1ccccc1 [Example 95]
8.19	43.8	–	6.55	O=c1n(Cc2ncn(-c3cnccc3N3CCC(F)(F)CC3)n2)nc(-c2ccc(Cl)cc2)n1C[C@H](O)C(F)(F)F [Example 9, 5-(4-Chlorophenyl)-2-({1-[4-(4,4-difluoropiperidin-1-yl)pyridin-3-yl]-1H-1,2,4-triazol-3-yl}methyl)-4-[(2S)-3,3,3-trifluoro-2-hydroxypropyl]-2,4-dihydro-3H-1,2,4-triazol-3-one]
9.49	24.4	–	8.11	O=C(Nc1n[nH]cc1Cl)c1ccccc1-n1cnc(Cn2nc(-c3ccc(Cl)cc3)n(C[C@H](O)C(F)(F)F)c2=O)n1 [Example 218, 2-[3-({3-(4-Chlorophenyl)-5-oxo-4-[(2S)-3,3,3-trifluoro-2-hydroxypropyl]-4,5-dihydro-1H-1,2,4-triazol-1-yl}methyl)-1H-1,2,4-triazol-1-yl]-N-(4-chloro-1H-pyrazol-3-yl)benzamide]
7.18	14.0	–	6.03	Cc1cc(CC(=O)Nc2ncccc2-n2cnc(Cn3nc(-c4ccc(Cl)cc4)n(C[C@H](O)C(F)(F)F)c3=O)n2)on1 [Example 135]
7.61	5.3	6.89	–	O=C(NCC(F)(F)F)c1cccnc1-n1cnc(Cn2nc(-c3ccc(Cl)cc3)n(C[C@H](O)C(F)(F)F)c2=O)n1 [Example 494, 2-[3-({3-(4-chlorophenyl)-5-oxo-4-[(2S)-3,3,3-trifluoro-2-hydroxypropyl]-4,5-dihydro-1H-1,2,4-triazol-1-yl}methyl)-1H-1,2,4-triazol-1-yl]-N-(2,2,2-trifluoroethyl)pyridine-3-carboxamide]
7.78	22.1	–	6.44	O=C(Nc1ccncc1-n1cnc(Cn2nc(-c3ccc(Cl)cc3)n(C[C@H](O)C(F)(F)F)c2=O)n1)C1CC1(F)F (mixture of isomers) [Example 29, N-{3-[3-({3-(4-Chlorophenyl)-5-oxo-4-[(2S)-3,3,3-trifluoro-2-hydroxypropyl]-4,5-dihydro-1H-1,2,4-triazol-1-yl}methyl)-1H-1,2,4-triazol-1-yl]pyridin-4-yl}-2,2-difluorocyclopropanecarboxamide]
8.58	103.8	–	6.56	CC(C)(C)CNC(=O)c1ccccc1-n1cnc(Cn2nc(-c3ccc(Cl)cc3)n(C[C@H](O)C(F)(F)F)c2=O)n1 [Example 322, 2-[3-({3-(4-Chlorophenyl)-5-oxo-4-[(2S)-3,3,3-trifluoro-2-hydroxypropyl]-4,5-dihydro-1H-1,2,4-triazol-1-yl}methyl)-1H-1,2,4-triazol-1-yl]-N-(2,2-dimethylpropyl)benzamide]
7.46	255.1	–	5.06	O=C1CCN(C(=O)c2ccccc2-n2cnc(Cn3nc(-c4ccc(Cl)cc4)n(C[C@H](O)C(F)(F)F)c3=O)n2)CCN1 [Example 265, 1-{2-[3-({3-(4-Chlorophenyl)-5-oxo-4-[(2S)-3,3,3-trifluoro-2-hydroxypropyl]-4,5-dihydro-1H-1,2,4-triazol-1-yl}methyl)-1H-1,2,4-triazol-1-yl]benzoyl}-1,4-diazepan-5-one]
7.39	28.7	–	5.93	O=C(Cn1cncn1)Nc1ncccc1-n1cnc(Cn2nc(-c3ccc(Cl)cc3)n(C[C@H](O)C(F)(F)F)c2=O)n1 [Example 88, N-{3-[3-({3-(4-Chlorophenyl)-5-oxo-4-[(2S)-3,3,3-trifluoro-2-hydroxypropyl]-4,5-dihydro-1H-1,2,4-triazol-1-yl}methyl)-1H-1,2,4-triazol-1-yl]pyridin-2-yl}-2-(1H-1,2,4-triazol-1-yl)acetamide]
